Data published in US12540131B2 (Merck Sharp & Dohme LLC, priority 2019, dated 2026).

molecular target: GST tagged truncated human mutant G2019S LRRK2 (Homo sapiens (Human), UniProt Q5S007, G2019S); test: LRRK2 Km ATP LanthaScreen Assay; assay type: biochemical; conditions: G2019S LRRK2, 134 μM ATP (Km ATP), mean values
Method in brief: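 Enzyme (GST-tagged, truncated) was preincubated with compound for 15 min at RT in 50 mM Tris pH 8.5, 10 mM MgCl2, 0.01% Brij-35, 1 mM EGTA, 2 mM DTT and 0.05 mM orthovanadate. Fluorescein-LRRKtide and 134 μM ATP (Km) were then added for 90 min. EDTA and Tb-anti-pERM antibody stopped the reaction; the TR-FRET 520/495 ratio gave 4-parameter IC50s, reported as mean pIC50.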

Chain of GST tagged truncated human mutant G2019S LRRK2 (Q5S007 970-2527 G2019S): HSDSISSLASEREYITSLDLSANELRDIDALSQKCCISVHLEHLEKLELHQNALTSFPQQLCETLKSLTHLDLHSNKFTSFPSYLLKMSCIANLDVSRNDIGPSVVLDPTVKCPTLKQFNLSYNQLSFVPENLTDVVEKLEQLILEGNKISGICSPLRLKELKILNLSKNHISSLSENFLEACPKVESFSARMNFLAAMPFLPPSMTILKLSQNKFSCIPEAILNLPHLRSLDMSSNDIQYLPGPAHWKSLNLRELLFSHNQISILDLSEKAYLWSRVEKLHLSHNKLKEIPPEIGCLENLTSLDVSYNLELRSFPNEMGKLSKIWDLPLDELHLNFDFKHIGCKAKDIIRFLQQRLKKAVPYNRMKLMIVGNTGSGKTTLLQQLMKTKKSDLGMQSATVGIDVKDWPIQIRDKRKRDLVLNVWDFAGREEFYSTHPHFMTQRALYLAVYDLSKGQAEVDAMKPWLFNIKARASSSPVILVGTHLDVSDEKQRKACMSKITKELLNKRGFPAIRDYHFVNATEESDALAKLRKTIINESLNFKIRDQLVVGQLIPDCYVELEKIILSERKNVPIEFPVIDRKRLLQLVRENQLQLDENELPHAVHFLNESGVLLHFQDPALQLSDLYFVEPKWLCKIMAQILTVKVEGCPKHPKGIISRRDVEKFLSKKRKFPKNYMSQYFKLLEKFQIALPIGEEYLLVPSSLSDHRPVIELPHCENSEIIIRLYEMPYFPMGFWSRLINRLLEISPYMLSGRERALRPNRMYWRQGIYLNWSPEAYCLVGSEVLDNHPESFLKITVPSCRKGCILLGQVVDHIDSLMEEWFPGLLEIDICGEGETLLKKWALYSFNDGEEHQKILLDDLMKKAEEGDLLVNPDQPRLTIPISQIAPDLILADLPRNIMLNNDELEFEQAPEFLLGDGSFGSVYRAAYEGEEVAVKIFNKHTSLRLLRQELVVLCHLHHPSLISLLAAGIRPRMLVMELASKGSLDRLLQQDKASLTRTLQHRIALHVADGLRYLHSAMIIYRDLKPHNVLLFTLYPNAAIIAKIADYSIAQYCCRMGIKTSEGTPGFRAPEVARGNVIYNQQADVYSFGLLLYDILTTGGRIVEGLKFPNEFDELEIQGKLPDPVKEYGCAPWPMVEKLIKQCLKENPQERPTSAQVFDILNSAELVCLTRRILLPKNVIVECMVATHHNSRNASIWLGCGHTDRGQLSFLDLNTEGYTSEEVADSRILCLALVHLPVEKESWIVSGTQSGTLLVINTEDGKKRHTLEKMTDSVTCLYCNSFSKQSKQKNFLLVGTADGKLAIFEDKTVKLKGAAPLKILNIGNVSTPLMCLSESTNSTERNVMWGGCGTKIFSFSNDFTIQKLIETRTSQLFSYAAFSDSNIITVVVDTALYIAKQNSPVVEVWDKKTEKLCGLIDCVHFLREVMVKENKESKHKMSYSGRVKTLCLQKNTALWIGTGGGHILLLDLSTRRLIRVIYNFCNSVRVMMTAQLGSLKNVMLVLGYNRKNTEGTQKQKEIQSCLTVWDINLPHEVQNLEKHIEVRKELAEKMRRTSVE

SMILES	LRRK2 pIC50
FC1(c2cc3nc(Nc4cnn(C5CC5)c4Cl)ncc3cc2Cl)CCN(C2COC2)CC1 [Ex-4.31, 6-chloro-N-(5-chloro-1-cyclopropyl-1H-pyrazol-4-yl)-7-[4-fluoro-1-(oxetan-3-yl)piperidin-4-yl]quinazolin-2-amine]	8.23
CN1CCC(F)(c2cc3nc(Nc4cnn(C5CC5)c4Cl)ncc3cc2Cl)CC1 [Ex-4.36, 6-chloro-N-(5-chloro-1-cyclopropyl-1H-pyrazol-4-yl)-7-(4-fluoro-1-methylpiperidin-4-yl)quinazolin-2-amine]	8.29
Cc1cc(Nc2ncc3cc(Cl)c(C4CCN(C5COC5)CC4)cc3n2)sn1 [Ex-4.45, 6-chloro-N-(3-methyl-1,2-thiazol-5-yl)-7-[1-(oxetan-3-yl)piperidin-4-yl]quinazolin-2-amine]	>9.20
Cc1c(Nc2ncc3cc(Cl)c(C4CCN(C5COC5)CC4)cc3n2)cnn1CCF [Ex-4.54, 6-chloro-N-[1-(2-fluoroethyl)-5-methyl-1H-pyrazol-4-yl]-7-[1-(oxetan-3-yl)piperidin-4-yl]quinazolin-2-amine]	>9.20
FC(F)Cn1ncc(Nc2ncc3cc(Cl)c(C4CCN(C5COC5)CC4)cc3n2)c1Cl [Ex-4.55, 6-chloro-N-[5-chloro-1-(2,2-difluoroethyl)-1H-pyrazol-4-yl]-7-[1-(oxetan-3-yl)piperidin-4-yl]quinazolin-2-amine]	>9.20
CC1(n2ncc(Nc3ncc4cc(Cl)c(C5CCN(C6COC6)CC5)cc4n3)c2Cl)CC1 [Ex-4.56, 6-chloro-N-[5-chloro-1-(1-methylcyclopropyl)-1H-pyrazol-4-yl]-7-[1-(oxetan-3-yl)piperidin-4-yl]quinazolin-2-amine]	>9.20
[2H]C1(N2CCC(c3cc4nc(Nc5cnn(C6CC6)c5Cl)ncc4cc3Cl)CC2)COC1 [Ex-4.57, 6-chloro-N-(5-chloro-1-cyclopropyl-1H-pyrazol-4-yl)-7-(1-(oxetan-3-yl-3-d)piperidin-4-yl)quinazolin-2-amine]	>9.20
[2H]C1([2H])OC([2H])([2H])C1([2H])N1CCC(c2cc3nc(Nc4cnn(CC(C)(C)O)c4Cl)ncc3cc2Cl)CC1 [Ex-4.58, 1-(5-chloro-4-((6-chloro-7-(1-(oxetan-3-yl-d5)piperidin-4-yl)quinazolin-2-yl)amino)-1H-pyrazol-1-yl)-2-methylpropan-2-ol]	>9.20
[2H]C1(N2CCC(c3cc4nc(Nc5cnn(CC(C)(C)O)c5Cl)ncc4cc3Cl)CC2)COC1 [Ex-4.59, 1-(5-chloro-4-((6-chloro-7-(1-(oxetan-3-yl-3-d)piperidin-4-yl)quinazolin-2-yl)amino)-1H-pyrazol-1-yl)-2-methylpropan-2-ol]	>9.20
CN1CCC(c2cc3nc(Nc4cnn(CC(C)(C)O)c4Cl)ncc3cc2Cl)CC1 [Ex-4.72, 1-(5-chloro-4-{[6-chloro-7-(1-methylpiperidin-4-yl)quinazolin-2-yl]amino}-1H-pyrazol-1-yl)-2-methylpropan-2-ol]	8.92
N#CC1(CN2CCC(c3cc4nc(Nc5cnn(C6CC6)c5Cl)ncc4cc3Cl)CC2)CC1 [Ex-4.78, 1-[(4-{6-chloro-2-[(5-chloro-1-cyclopropyl-1H-pyrazol-4-yl)amino]quinazolin-7-yl}piperidin-1-yl)methyl]cyclopropane-1-carbonitrile]	7.95
Cc1cc2cnc(Nc3cnn(CC(C)(C)O)c3Cl)nc2cc1C1CCN(C2COC2)CC1 [Ex-4.80, 1-[5-chloro-4-({6-methyl-7-[1-(oxetan-3-yl)piperidin-4-yl]quinazolin-2-yl}amino)-1H-pyrazol-1-yl]-2-methylpropan-2-ol]	8.87
Cc1cc2cnc(Nc3cnn(C4CC4)c3Cl)nc2cc1C1CCN(C2COC2)CC1 [Ex-4.84, N-(5-chloro-1-cyclopropyl-1H-pyrazol-4-yl)-6-methyl-7-[1-(oxetan-3-yl)piperidin-4-yl]quinazolin-2-amine]	9.01
CC(C)(O)Cn1ncc(Nc2ncc3cc(Cl)c(C4(F)CCN(C5COC5)CC4)cc3n2)c1Cl [Ex-4.86, 1-[5-chloro-4-({6-chloro-7-[4-fluoro-1-(oxetan-3-yl)piperidin-4-yl]quinazolin-2-yl}amino)-1H-pyrazol-1-yl]-2-methylpropan-2-ol]	8.09
Clc1cc2cnc(Nc3cnn(C4CCC4)c3Cl)nc2cc1C1CCNCC1 [Ex-4.89, 6-chloro-N-(5-chloro-1-cyclobutyl-1H-pyrazol-4-yl)-7-(piperidin-4-yl)quinazolin-2-amine]	9.13
Clc1cc2cnc(Nc3cnn(CC4CC4)c3Cl)nc2cc1C1CCNCC1 [Ex-4.90, 6-chloro-N-[5-chloro-1-(cyclopropylmethyl)-1H-pyrazol-4-yl]-7-(piperidin-4-yl)quinazolin-2-amine]	>9.20

SMILES	LRRK2 pIC50
FC(F)Cn1ncc(Nc2ncc3cc(Cl)c(C4CCNCC4)cc3n2)c1Cl [Ex-4.93, 6-chloro-N-[5-chloro-1-(2,2-difluoroethyl)-1H-pyrazol-4-yl]-7-(piperidin-4-yl)quinazolin-2-amine]	8.70
CC(C)(O)Cn1ncc(Nc2ncc3cc(Cl)c(C4CCNCC4)cc3n2)c1Cl [Ex-4.94, 1-(5-chloro-4-{[6-chloro-7-(piperidin-4-yl)quinazolin-2-yl]amino}-1H-pyrazol-1-yl)-2-methylpropan-2-ol]	8.46
N#CCCN1CCC(c2cc3nc(Nc4cnn(CC(F)F)c4Cl)ncc3cc2Cl)CC1 [Ex-4.95, 3-[4-(6-chloro-2-{[5-chloro-1-(2,2-difluoroethyl)-1H-pyrazol-4-yl]amino}quinazolin-7-yl)piperidin-1-yl]propanenitrile]	>9.20
Cc1cc(Nc2ncc3cc(Cl)c(C4CCN(C5CS(=O)(=O)C5)CC4)cc3n2)sn1 [Ex-4.96, 3-(4-(6-chloro-2-((3-methylisothiazol-5-yl)amino)quinazolin-7-yl)piperidin-1-yl)thietane 1,1-dioxide]	9.09
CCN1CCC(c2cc3nc(Nc4cnn(CC(C)(C)O)c4Cl)ncc3cc2Cl)CC1 [Ex-4.97, 1-(5-chloro-4-{[6-chloro-7-(1-ethylpiperidin-4-yl)quinazolin-2-yl]amino}-1H-pyrazol-1-yl)-2-methylpropan-2-ol]	8.57
CC1(N2CCC(c3cc4nc(Nc5cnn(CC(F)F)c5Cl)ncc4cc3Cl)CC2)COC1 [Ex-4.98, 6-chloro-N-[5-chloro-1-(2,2-difluoroethyl)-1H-pyrazol-4-yl]-7-[1-(3-methyloxetan-3-yl)piperidin-4-yl]quinazolin-2-amine]	>9.20
Clc1cc2cnc(Nc3cnn(C4CC4)c3Cl)nc2cc1C1CC2CCC(C1)N2C1COC1 (stereo not drawn) [Ex-4.112, cis or trans 6-chloro-N-(5-chloro-1-cyclopropyl-1H-pyrazol-4-yl)-7-(8-(oxetan-3-yl)-8-azabicyclo[3.2.1]octan-3-yl)quinazolin-2-amine]	>9.20
Clc1cc2cnc(Nc3cnn(C4CC4)c3Cl)nc2cc1C1CC2COCC(C1)N2C1COC1 (stereo not drawn) [Ex-4.113, cis or trans 6-chloro-N-(5-chloro-1-cyclopropyl-1H-pyrazol-4-yl)-7-(9-(oxetan-3-yl)-3-oxa-9-azabicyclo[3.3.1]nonan-7-yl)quinazolin-2-amine]	8.11
CC1CC(c2cc3nc(Nc4cnn(C5CC5)c4Cl)ncc3cc2Cl)CC(C)N1C1COC1 (stereo not drawn) [Ex-4.118, cis or trans 6-chloro-N-(5-chloro-1-cyclopropyl-1H-pyrazol-4-yl)-7-(2,6-dimethyl-1-(oxetan-3-yl)piperidin-4-yl)quinazolin-2-amine]	8.46
Clc1cc2cnc(Nc3cnn(C4CC4)c3Cl)nc2cc1C1CC2(C1)CN(C1COC1)C2 [Ex-4.119, 6-chloro-N-(5-chloro-1-cyclopropyl-1H-pyrazol-4-yl)-7-(2-(oxetan-3-yl)-2-azaspiro[3.3]heptan-6-yl)quinazolin-2-amine]	7.96
Cc1c(Nc2ncc3cc(Cl)c(C4CCN(C5CC[C@@H]6C[C@H]56)CC4)cc3n2)cnn1C1CC1 (stereo partly drawn) [Ex-4.172, 7-{1-[(1S,5R)-bicyclo[3.1.0]hexan-2-yl]piperidin-4-yl}-6-chloro-N-(1-cyclopropyl-5-methyl-1H-pyrazol-4-yl)quinazolin-2-amine]	7.53
Cc1c(Nc2ncc3cc(Cl)c(C4CCN(C[C@@H](O)c5ccccc5)CC4)cc3n2)cnn1C1CC1 [Ex-4.193, (1S)-2-(4-{6-chloro-2-[(1-cyclopropyl-5-methyl-1H-pyrazol-4-yl)amino]quinazolin-7-yl}piperidin-1-yl)-1-phenylethan-1-ol]	9.04
Cc1c(Nc2ncc3cc(Cl)c(C4CCN(C[C@H](O)c5cccc(Cl)c5)CC4)cc3n2)cnn1C1CC1 [Ex-4.194, (1R)-2-(4-{6-chloro-2-[(1-cyclopropyl-5-methyl-1H-pyrazol-4-yl)amino]quinazolin-7-yl}piperidin-1-yl)-1-(3-chlorophenyl)ethan-1-ol]	8.28
Cc1c(Nc2ncc3cc(Cl)c(C4CCN(C[C@H](O)c5cccc(F)c5)CC4)cc3n2)cnn1C1CC1 [Ex-4.195, (1R)-2-(4-{6-chloro-2-[(1-cyclopropyl-5-methyl-1H-pyrazol-4-yl)amino]quinazolin-7-yl}piperidin-1-yl)-1-(3-fluorophenyl)ethan-1-ol]	8.24
Cc1c(Nc2ncc3cc(Cl)c(C4CCN(C[C@@H](O)c5cccc(F)c5)CC4)cc3n2)cnn1C1CC1 [Ex-4.196, (1S)-2-(4-{6-chloro-2-[(1-cyclopropyl-5-methyl-1H-pyrazol-4-yl)amino]quinazolin-7-yl}piperidin-1-yl)-1-(3-fluorophenyl)ethan-1-ol]	8.87
